Source: patent US12421253B2 (Mirati Therapeutics, Inc., priority 2020, dated 2025)

How the values were obtained:
KRas^G12D = biological target: T1, KRas^G12D (Homo sapiens, UniProt P01116, G12D); experiment: KRas binding assay (TR-FRET displacement of Cy5 labelled tracer)
T1 construct: […]; biotin (biotinylated); purchased Accelegan Inc

KRas^G12R = biological target: T2, KRas^G12R (Homo sapiens, UniProt P01116, G12R); experiment: as above
T2 construct: […]; biotin (biotinylated); purchased Accelegan Inc

KRas^G12V = biological target: T3, KRas^G12V (Homo sapiens, UniProt P01116, G12V); experiment: as above
T3 construct: […]; biotin (biotinylated); purchased Accelegan Inc

ASPC1 cells, pERK = experiment: Inhibition of KRas phosphorylation of ERK (Cisbio HTRF Advanced pERK assay); format: cell-based; conditions: Homo sapiens, ASPC1, 3 h, AsPC-1 cells, read-out: Inhibition (HTRF IC50 nM) of KRas-mediated Phosphorylation of ERK, AsPC-1
Summary of the method: (§1)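 Cells were seeded overnight in RPMI with 10% FBS, then treated for 3 h at 37 °C with 10-dose, 3-fold compound titrations from 10 uM (0.8% DMSO final). After lysis at 4 °C, phospho-ERK was quantified by HTRF using d2- and cryptate-labelled antibodies; 0.2 uM trametinib served as minimum control.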

H460 cells, pERK = experiment: as above; format: cell-based; conditions: Homo sapiens, NCI-H460, 3 hrs, read-out: Inhibition (HTRF IC50 nM) of KRas-mediated Phosphorylation of ERK, H460
Summary of the method: as §1

H727 cells, pERK = experiment: as above; format: cell-based; conditions: Homo sapiens, NCI-H727, 3 h, read-out: Inhibition (HTRF IC50 nM) of KRas-mediated Phosphorylation of ERK, H727
Summary of the method: as §1

HCT116 cells, pERK = experiment: as above; format: cell-based; conditions: Homo sapiens, HCT-116, 3 hrs, read-out: Inhibition (HTRF IC50 nM) of KRas-mediated Phosphorylation of ERK, HCT116
Summary of the method: as §1

MKN1 cells, pERK = experiment: as above; format: cell-based; conditions: Homo sapiens, MKN-1, 3 h, read-out: Inhibition (HTRF IC50 nM) of KRas-mediated Phosphorylation of ERK, MKN1
Summary of the method: as §1

PSN1 cells, pERK = experiment: as above; format: cell-based; conditions: Homo sapiens, PSN1, 3 h, read-out: Inhibition (HTRF IC50 nM) of KRas-mediated Phosphorylation of ERK, PSN1
Summary of the method: as §1

T1 sequence (P01116 1-169 isoform P01116-2 G12D): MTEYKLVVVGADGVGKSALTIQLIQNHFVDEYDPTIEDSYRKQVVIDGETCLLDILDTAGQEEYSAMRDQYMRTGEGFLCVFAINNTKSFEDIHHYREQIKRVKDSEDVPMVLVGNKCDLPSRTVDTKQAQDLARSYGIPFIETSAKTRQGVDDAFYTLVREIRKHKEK
T2 sequence (P01116 1-169 isoform P01116-2 G12R): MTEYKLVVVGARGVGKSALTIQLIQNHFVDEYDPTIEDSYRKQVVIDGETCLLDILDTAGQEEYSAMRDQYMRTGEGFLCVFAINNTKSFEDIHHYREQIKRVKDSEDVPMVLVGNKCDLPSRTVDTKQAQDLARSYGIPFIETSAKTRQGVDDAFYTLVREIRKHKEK
T3 sequence (P01116 1-169 isoform P01116-2 G12V): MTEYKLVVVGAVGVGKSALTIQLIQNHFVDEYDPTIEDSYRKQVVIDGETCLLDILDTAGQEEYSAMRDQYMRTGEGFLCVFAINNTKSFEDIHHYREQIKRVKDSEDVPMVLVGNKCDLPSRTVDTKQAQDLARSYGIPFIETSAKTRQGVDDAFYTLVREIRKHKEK

SMILES	IC50 (KRas^G12D) [nM]	IC50 (KRas^G12R) [nM]	IC50 (KRas^G12V) [nM]	IC50 (ASPC1 cells, pERK) [nM]	IC50 (H460 cells, pERK) [nM]	IC50 (H727 cells, pERK) [nM]	IC50 (HCT116 cells, pERK) [nM]	IC50 (MKN1 cells, pERK) [nM]	IC50 (PSN1 cells, pERK) [nM]
CCc1c(F)ccc2cc(O)cc(N3CCc4c(nc(OC[C@@]56CCCN5C[C@H](F)C6)nc4N4CCCC5(CNC(=O)C5)C4)C3)c12 (stereo partly drawn) [Example 197, 7-(7-(8-ethyl-7-fluoro-3-hydroxynaphthalen-1-yl)-2-(((2R,7aS)-2-fluorohexahydro-1H-pyrrolizin-7a-yl)methoxy)-5,6,7,8-tetrahydropyrido[3,4-d]pyrimidin-4-yl)-2,7-diazaspiro[4.5]decan-3-one]	≤ 2	≤ 2	≤ 2	136	285	313	499	12	1690
Nc1cc2n(n1)CCCN(c1nc(OC[C@@]34CCCN3C[C@H](F)C4)nc3c1CCN(c1cc(O)cc4ccc(F)c(Br)c14)C3)C2 [Example 212, 4-(4-(2-amino-7,8-dihydro-4H-pyrazolo[1,5-a][1,4]diazepin-5(6H)-yl)-2-(((2R,7aS)-2-fluorohexahydro-1H-pyrrolizin-7a-yl)methoxy)-5,6-dihydropyrido[3,4-d]pyrimidin-7(8H)-yl)-5-bromo-6-fluoronaphthalen-2-ol]	≤ 2	≤ 2	≤ 2	111	545	268	1110	61	≥ 10000
C[C@@]1(O)CCCN(c2nc(OC[C@@]34CCCN3C[C@H](F)C4)nc3c2CCN(c2cc(O)cc4ccc(F)c(Cl)c24)C3)C1 [Example 68, (R)-1-(7-(8-chloro-7-fluoro-3-hydroxynaphthalen-1-yl)-2-(((2R,7aS)-2-fluorohexahydro-1H-pyrrolizin-7a-yl)methoxy)-5,6,7,8-tetrahydropyrido[3,4-d]pyrimidin-4-yl)-3-methylpiperidin-3-ol]	≤ 2	3	≤ 2	112	421	423	1170	71	2260
CCc1c(F)ccc2cc(O)cc(N3CCc4c(nc(OC[C@@]56CCCN5C[C@H](F)C6)nc4N4CCCC5(CNS(=O)(=O)N5)C4)C3)c12 (stereo partly drawn) [Example 61, 7-(7-(8-ethyl-7-fluoro-3-hydroxynaphthalen-1-yl)-2-(((2R,7aS)-2-fluorohexahydro-1H-pyrrolizin-7a-yl)methoxy)-5,6,7,8-tetrahydropyrido[3,4-d]pyrimidin-4-yl)-2-thia-1,3,7-triazaspiro[4.5]decane 2,2-dioxide]	4	9	4	211	–	1200	2380	51	3650
CCc1c(F)ccc2cc(O)cc(N3CCc4c(nc(OC[C@@]56CCCN5C[C@H](F)C6)nc4N4CCCC5(CNC5=O)C4)C3)c12 (stereo partly drawn) [Example 64, 6-(7-(8-ethyl-7-fluoro-3-hydroxynaphthalen-1-yl)-2-(((2R,7aS)-2-fluorohexahydro-1H-pyrrolizin-7a-yl)methoxy)-5,6,7,8-tetrahydropyrido[3,4-d]pyrimidin-4-yl)-2,6-diazaspiro[3.5]nonan-1-one]	≤ 2	≤ 2	≤ 2	595	–	778	891	83	2630

Further lines, results first:

IC50 (KRas^G12D) [nM]	IC50 (KRas^G12R) [nM]	IC50 (KRas^G12V) [nM]	IC50 (ASPC1 cells, pERK) [nM]	IC50 (H460 cells, pERK) [nM]	IC50 (H727 cells, pERK) [nM]	IC50 (HCT116 cells, pERK) [nM]	IC50 (MKN1 cells, pERK) [nM]	IC50 (PSN1 cells, pERK) [nM]	SMILES
≤ 2	≤ 2	≤ 2	179	352	530	672	37	2820	C[C@@]1(O)CCCN(c2nc(OC[C@@]34CCCN3C[C@H](F)C4)nc3c2CCN(c2cc(O)cc4ccc(F)c(Br)c24)C3)C1 [Example 222, (R)-1-(7-(8-bromo-7-fluoro-3-hydroxynaphthalen-1-yl)-2-(((2R,7aS)-2-fluorotetrahydro-1H-pyrrolizin-7a(5H)-yl)methoxy)-5,6,7,8-tetrahydropyrido[3,4-d]pyrimidin-4-yl)-3-methylpiperidin-3-ol]
4	6	8	383	1560	600	–	462	≥ 10000	CCc1c(F)ccc2cc(O)cc(N3CCc4c(nc(OC[C@@]56CCCN5C[C@H](F)C6)nc4N4CCCc5ncccc5C4)C3)c12 [Example 180, 4-(4-(8,9-dihydro-5H-pyrido[3,2-c]azepin-6(7H)-yl)-2-(((2R,7aS)-2-fluorohexahydro-1H-pyrrolizin-7a-yl)methoxy)-5,6-dihydropyrido[3,4-d]pyrimidin-7(8H)-yl)-5-ethyl-6-fluoronaphthalen-2-ol]
3	4	3	448	1020	1580	–	97	6120	CC1(O)COCCN(c2nc(OC[C@@]34CCCN3C[C@H](F)C4)nc3c2CCN(c2cc(O)cc4ccc(F)c(Br)c24)C3)C1 (stereo partly drawn) [Example 219, 4-(7-(8-bromo-7-fluoro-3-hydroxynaphthalen-1-yl)-2-(((2R,7aS)-2-fluorohexahydro-1H-pyrrolizin-7a-yl)methoxy)-5,6,7,8-tetrahydropyrido[3,4-d]pyrimidin-4-yl)-6-methyl-1,4-oxazepan-6-ol]
≤ 2	≤ 2	≤ 2	320	325	234	–	19	607	O=C1CC2(CCCN(c3nc(OC[C@@]45CCCN4C[C@H](F)C5)nc4c3CCN(c3cc(O)cc5ccc(F)c(Br)c35)C4)C2)N1 (stereo partly drawn) [Example 223, 6-(7-(8-bromo-7-fluoro-3-hydroxynaphthalen-1-yl)-2-(((2R,7aS)-2-fluorohexahydro-1H-pyrrolizin-7a-yl)methoxy)-5,6,7,8-tetrahydropyrido[3,4-d]pyrimidin-4-yl)-1,6-diazaspiro[3.5]nonan-2-one]
3	≤ 2	≤ 2	1290	–	739	1210	26	4420	CCc1c(F)ccc2cc(O)cc(N3CCc4c(nc(OC[C@@]56CCCN5C[C@H](F)C6)nc4N4CCOCC(CO)C4)C3)c12 (stereo partly drawn) [Example 65, 5-ethyl-6-fluoro-4-(2-(((2R,7aS)-2-fluorohexahydro-1H-pyrrolizin-7a-yl)methoxy)-4-(6-(hydroxymethyl)-1,4-oxazepan-4-yl)-5,6-dihydropyrido[3,4-d]pyrimidin-7(8H)-yl)naphthalen-2-ol]
